This experiment concerns the target T1, human EHMT2 913-1193 (Homo sapiens, UniProt Q96KQ7).
T1 construct: recombinant purified human EHMT2 913-1193, Viva; purchased Viva
T1 sequence (Q96KQ7 913-1193): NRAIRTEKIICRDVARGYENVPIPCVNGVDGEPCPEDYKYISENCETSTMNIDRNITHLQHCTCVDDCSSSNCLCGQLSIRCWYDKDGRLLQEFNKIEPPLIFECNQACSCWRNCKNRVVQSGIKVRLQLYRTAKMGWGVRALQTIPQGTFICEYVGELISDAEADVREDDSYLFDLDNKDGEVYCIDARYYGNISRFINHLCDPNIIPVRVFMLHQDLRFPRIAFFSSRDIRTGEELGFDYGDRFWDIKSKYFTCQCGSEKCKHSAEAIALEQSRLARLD
Kind of experiment: EHMT2 enzyme assay on histone peptide substrate (EHMT2 PEP). It is filed as biochemical. As to conditions: Table III; read-out: EHMT2 PEP (IC50 μM). In a few lines:
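10-pt 3-fold series, 50 μM top final, 2% DMSO; 30 min preinc w/ 0.031 nM enzyme; pH 7.5 Bicine/TCEP buffer; ^3H-SAM + biotin-histone peptide, 60 min RT; SAM quench; streptavidin Flashplate capture, TopCount.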

Where only a bound is given, the exact number is not on record here.

What is called IC50 is the point on the concentration scale where inhibition reaches its midpoint. With `COc1ccc(Nc2nccc(NC(C)C3CCOCC3)n2)cc1OCCCN1CCCC1` (centres unmarked) [Compound 378], the IC50 was 0.1 to 1 µM.

Take `CNc1ccnc(Nc2ccc(OC)c(OCCCN3CCCC3)c2)c1` [Compound 379]: the IC50 was 0.1 to 1 µM.

In the case of `CNc1ccnc(Nc2ccc3ccn(CCN4CCCC4)c(=O)c3c2)n1` [Compound 381], the IC50 is 1 to 10 µM.

As for `CNc1ccnc(Nc2ccc(OC)c(COCCN3CCCC3)c2)n1` [Compound 382], the IC50 fell in the range of 0.1 to 1 µM.

Take `CNc1ccnc(Nc2cccc(COCCN3CCCC3)c2)n1` [Compound 383]: the IC50 fell in the range of 1 to 10 µM.

`CNc1cc(C#N)nc(Nc2ccc(OC)c(OCCCN3CCCC3)c2)n1` [Compound 384]: the IC50 is above 10 µM.

As to `CCc1cc(NC)nc(Nc2ccc(OC)c(OCCCN3CC[C@@H](F)C3)c2)n1` [Compound 385], the IC50 lay in the range of 0.1 to 1 µM.

Consider `CNc1ccnc(Nc2ccc3cnn(CCN(C)C)c3c2)n1` [Compound 386], for which the IC50 is above 10 µM.

On to `CNc1ccnc(Nc2ccc(OC)c(OCCCN(C)C)c2)n1` [Compound 387], for which the IC50 fell in the range of 0.1 to 1 µM.

In the case of `CNc1ccnc(Nc2ccc3cnn(CCCN(C)C)c3c2)n1` [Compound 388, N^2-(1-(3-(dimethylamino)propyl)-1H-indazol-6-yl)-N^4-methylpyrimidine-2,4-diamine], the IC50 was above 10 µM.

Regarding `CNc1ccnc(Nc2ccc3c(C)nn(CCCN(C)C)c3c2)n1` [Compound 389], the IC50 was above 10 µM.

Consider `CNc1ccnc(Nc2ccc(OC)c(OCCCN3CCCCC3)c2)n1` [Compound 390], for which the IC50 lay within 0.1 to 1 µM.

As for `CNc1cc(C)nc(Nc2cccc(OCCCN3CCCC3)c2)n1` [Compound 391], the IC50 lay in the range of 0.1 to 1 µM.

Consider `COc1ccc(Nc2nccc(NCC(F)(F)F)n2)cc1OCCCN1CCCC1` [Compound 392], for which the IC50 is 0.1 to 1 µM.

Regarding `CNc1ccnc(Nc2ccc(OC)c(OCC3CCN(C)C3)c2)n1` (centres unmarked) [Compound 393], the IC50 fell in the range of 0.1 to 1 µM.

For `CCNC(=O)c1cccc(Nc2nccc(NC)n2)c1` [Compound 394], the IC50 was above 10 µM.

On to `CCNC(=O)c1cc(Nc2nccc(NC)n2)ccc1OC` [Compound 395], for which the IC50 was above 10 µM.

Turning to `CCNC(=O)c1cc(Nc2nccc(NC)n2)ccc1Cl` [Compound 396], the IC50 was above 10 µM.

Take `CNc1ccnc(Nc2cccc(N3CCC(N(C)C)C3)c2)n1` (centres unmarked) [Compound 397]: the IC50 is above 10 µM.

Consider `CNc1ccnc(Nc2ccc(Cl)c(OCCCN3CCCC3)c2)n1` [Compound 398], for which the IC50 was in the range of 0.1 to 1 µM.

As to `CNc1ccnc(Nc2cccc(N3CCC(N)C3)c2)n1` (centres unmarked) [Compound 400], the IC50 was in the range of 1 to 10 µM.

For `COc1ccc(Nc2ccc3cn(C)nc3n2)cc1OCCCN1CCCC1` [Compound 402], the IC50 is above 10 µM.

Turning to `CNc1ccnc(Nc2ccc3cn(CCN(C)C)nc3c2)n1` [Compound 404, N^2-(2-(2-(dimethylamino)ethyl)-2H-indazol-6-yl)-N^4-methylpyrimidine-2,4-diamine], the half-maximal inhibitory concentration (IC50) was above 10 µM.

Regarding `CNc1ccnc(Nc2ccc3cn(CCCN(C)C)nc3c2)n1` [Compound 405], the IC50 was above 10 µM.

As for `CNc1ccnc(Nc2ccc(OC)c(COC3CCN(C)C3)c2)n1` (centres unmarked) [Compound 407, N^2-(4-methoxy-3-(((1-methylpyrrolidin-3-yl)oxy)methyl)phenyl)-N^4-methylpyrimidine-2,4-diamine], the IC50 lay within 0.1 to 1 µM.

Take `CCN1CCC(COc2cc(Nc3nccc(NC)n3)ccc2OC)C1` (centres unmarked) [Compound 408, N^2-(3-((1-ethylpyrrolidin-3-yl)methoxy)-4-methoxyphenyl)-N^4-methylpyrimidine-2,4-diamine]: the IC50 is 0.1 to 1 µM.

For the compound `CNc1ccnc(Nc2ccc(OC)c(OCC3CCN(C(C)C)C3)c2)n1` (centres unmarked) [Compound 409, N^2-(3-((1-isopropylpyrrolidin-3-yl)methoxy)-4-methoxyphenyl)-N^4-methylpyrimidine-2,4-diamine], the IC50 is below 0.1 µM.

For `CNc1ccnc(Nc2ccc(OC)c(OCC3CCN(CCOC)C3)c2)n1` (centres unmarked) [Compound 410, N^2-(4-methoxy-3-((1-(2-methoxyethyl)pyrrolidin-3-yl)methoxy)phenyl)-N^4-methylpyrimidine-2,4-diamine], the IC50 was in the range of 1 to 10 µM.

As to `CNc1ccnc(Nc2ccc(OC)c(OCC3CCN(C4CC4)C3)c2)n1` (centres unmarked) [Compound 411, N^2-(3-((1-cyclopropylpyrrolidin-3-yl)methoxy)-4-methoxyphenyl)-N^4-methylpyrimidine-2,4-diamine], the IC50 was below 0.1 µM.

Take `CNc1ccnc(Nc2ccc(OC)c(OCC3CCCN(C)C3)c2)n1` (centres unmarked) [Compound 412, N^2-(4-methoxy-3-((1-methylpiperidin-3-yl)methoxy)phenyl)-N^4-methylpyrimidine-2,4-diamine]: the IC50 lay within 0.1 to 1 µM.

`CNc1cc(C)nc(Nc2ccc(OC)c(OCC3CCCN(C)C3)c2)n1` (centres unmarked) [Compound 413, N^2-(4-methoxy-3-((1-methylpiperidin-3-yl)methoxy)phenyl)-N^4,6-dimethylpyrimidine-2,4-diamine]: the IC50 fell in the range of 0.1 to 1 µM.

For the compound `CNc1ccnc(Nc2ccc(OC)c(OCCCN3CC(O)C3)c2)n1` [Compound 414, 1-(3-(2-methoxy-5-((4-(methylamino)pyrimidin-2-yl)amino)phenoxy)propyl)azetidin-3-ol], the IC50 is below 0.1 µM.

Turning to `CCCN1CCC(COc2cc(Nc3nccc(NC)n3)ccc2OC)C1` (centres unmarked) [Compound 420, N^2-(4-methoxy-3-((1-propylpyrrolidin-3-yl)methoxy)phenyl)-N^4-methylpyrimidine-2,4-diamine], the IC50 was 0.1 to 1 µM.

`CNc1cc(C)nc(Nc2ccc(OC)c(COC3CCN(C)C3)c2)n1` (centres unmarked) [Compound 421, N^2-(4-methoxy-3-(((1-methylpyrrolidin-3-yl)oxy)methyl)phenyl)-N^4,6-dimethylpyrimidine-2,4-diamine]: the IC50 fell in the range of 0.1 to 1 µM.

As to `CNc1ccnc(Nc2ccc(OC)c(OCC3CCN(CC4CC4)C3)c2)n1` (centres unmarked) [Compound 422, N^2-(3-((1-(cyclopropylmethyl)pyrrolidin-3-yl)methoxy)-4-methoxyphenyl)-N^4-methylpyrimidine-2,4-diamine], the IC50 fell in the range of 0.1 to 1 µM.

Values taken from patent publication US20210198277A1, “AMINE-SUBSTITUTED ARYL OR HETEROARYL COMPOUNDS” (Epizyme, Inc., priority 2016, published 2021).
